# Source: patent US20050107430A1, “Antimicrobial and antiviral compounds” (priority 2003, published 2005)
# How the values were obtained:
# [1] = system: VRE (Vancomycin resistant Enterococci); experiment: NCCLS MIC/MBC microdilution, VRE; conditions: for MIC, VRE enterococcus (E. faecalis): Table 3, 24 h and 48 h same results
# Experimental: (§2) Standard NCCLS (e.g., National Committee for Clinical Laboratory Standards) methods for determining MIC (e.g., minimum inhibitory concentration) and MBC (e.g., minimum bactericidal concentration) were used. 96 well micro-well plates were placed in a humid chamber and frozen at −70° C. [BBL Mueller Hinton Broth]. Drugs (e.g., antimicrobial compounds of the present invention) were added to a series of wells through 2 fold serial dilutions. 100 μl of a 2×10^−3 M solution of the respective Tx compounds was added to the first well in a series. 100 μl of the inoculum (e.g., microorganism) was added to the well. […] For example, the concentration in well 8 would be less than the concentration of the same drug in well 7. Inoculum (e.g., microorganism) that was added to the wells was prepared from 24 hour growth of an isolate on 5% sheep blood/Columbia agar plates. 5 to 10 representative colonies were then picked from the plates and added to saline and adjusted to 0.5 McFarland turbidity. Next the sample was diluted 1:100 in saline, such that 100 μl of the diluted sample contained approximately 1×10^5 microbes. 100 μl of the diluted sample was added to each well in a series of drug concentrations. Once the cells were added to the wells, the well plates were incubated at 35° C. without CO2 for 48 hrs and at this time the minimum bactericidal concentration was determined.
# (§3) The MIC of Tx-118, Tx-147, and Tx-197 for certain Staphylococcus aureus (MRSA), Pseudomonas aeruginosa, Stenotrophomonas maltophilia, and VRE Enterococcus faecalis was determined using standard NCCLS methods. The first well in each series of decreasing drug concentrations contained 1×10^−4 M of a drug. The drug was diluted by serial two fold dilutions through all 12 wells in a series. There was a final DMSO concentration of 2% in the first well and 1% in the second well, etc. Tests with Tx-118 and Tx-197 were performed in triplicate, and tests with Tx-147 were performed in duplicate.
# P. aeruginosa = experiment: NCCLS MIC/MBC microdilution, P. aeruginosa; set-up: MIC: key to the marks not given beside the values; conditions: for MIC, P. aeruginosa: Table 3, P. aeroginosa is L13 from Table 2
# [2] = system: Vancomycin resistant S. aureus ATCC700699 and 700788 (VRSA); experiment: NCCLS MIC/MBC microdilution, vancomycin resistant S. aureus; assay type: cell-based, Staphylococcus aureus; conditions: for MIC, VRSA (ATCC 700699) / MIC, VRSA (ATCC 700788): Table 3, 24 h and 48 h same results; for MBC: read at 48 hr
# Description: (§1) [BBL Mueller Hinton Broth].
# Aspergillus fumigatus = experiment: MIC, Aspergillus fumigatus; assay type: cell-based; conditions: Table 3
# Fusarium = experiment: MIC, Fusarium; assay type: cell-based; conditions: Table 3
# BDF1′ mice = conditions: 35 mg/kg ip
# Enterococcus faecium = experiment: NCCLS MIC/MBC microdilution, Enterococcus (vancomycin sensitive); assay type: cell-based; conditions: for MBC: read at 48 hr
# Description: as §1
# [3] = system: MRSA (oxacillin/methicillin resistant S. aureus); experiment: NCCLS MIC/MBC microdilution, MRSA; conditions: for MBC: read at 48 hr, 10^−3 kill
# Experimental: as §2, §3
# [4] = system: Stenotrophomonas maltophilia; experiment: NCCLS MIC/MBC microdilution, S. maltophilia; conditions: for MBC: read at 48 hr, 10^−3 kill
# Experimental: as §2, §3
# Candida albicans = experiment: MIC, Candida albicans; assay type: cell-based
# Mycobacterium chelonae = experiment: MIC, Mycobacterium chelonae; assay type: cell-based; conditions: Table 3
# E. coli ATCC 25922 = experiment: NCCLS MIC/MBC microdilution, E. coli; assay type: cell-based; conditions: plate EC
# Description: as §1
# human fibroblasts = experiment: Toxicity study with human fibroblasts; assay type: cell-based
# S. aureus = experiment: NCCLS MIC/MBC microdilution, S. aureus patient isolates; assay type: cell-based, Staphylococcus aureus; conditions: for MBC: read at 48 hr
# Description: as §1
# [5] = system: Mycobacterium tuberculosis; conditions: Table 3
# [6] = system: chloroquin (CQ) resistant strain of Plasmodium falciparum (Pf); experiment: In vitro efficacy against chloroquin resistant Plasmodium falciparum; assay type: cell-based
# Experimental: Tx-5 and Tx-84 were tested for in vitro efficacy against a chloroquin (CQ) resistant strain of Plasmodium falciparum (Pf). The tests were performed in triplicate at a wide variety of concentrations and evaluated for effect compared with CQ.
# [7] = plate E348, Enterococcus faecium patient isolate
# [8] = plate E502, Enterococcus faecium ATCC 502806
# [9] = plate E523, Enterococcus facium patient isolate
# [10] = Table 3, 24 h and 48 h same results
# [11] = plate 699, VancoR S. aureus ATCC700699
# [12] = plate 788, VancoR S. aureus ATCC 700788
# [13] = plate S332, S aureus patient isolate
smiles,measurement,setting,value
c1ccc2c3c(ccc2c1)-c1c(cc(NCCCCN2CCCCC2)c2ccccc12)C3 [Tx-112],"MIC, VRE enterococcus (E. faecalis)",[1],210 µg/mL
same,"MIC, P. aeruginosa",P. aeruginosa,No activity
same,"MIC, VRSA (ATCC 700699)",[2],8 µg/mL
same,"MIC, VRSA (ATCC 700788)",[2],8 µg/mL
same,"MIC, Aspergillus fumigatus",Aspergillus fumigatus,6.5 µg/mL
same,"MIC, Fusarium",Fusarium,3.3 µg/mL
"c1ccc2c(c1)ccc1c3ccc(NCCCCN4CCCCC4)cc3ccc21 [Tx-5, N-(2′-chrysenyl)-4-(1′-piperidinyl)-butane-1,4-diamine]","animal studies (ip), mortality",BDF1′ mice,mg/kg (<10% mort)
same,MIC,Enterococcus faecium; [7],1.5 µg/mL
same,MBC,Enterococcus faecium; [7],3 µg/mL
same,MIC,Enterococcus faecium; [8],1.5 µg/mL
same,MBC,Enterococcus faecium; [8],6 µg/mL
same,MIC,Enterococcus faecium; [9],1.5/1.5 ug/ml
same,MBC,Enterococcus faecium; [9],1.5/1.5 ug/ml
same,"MIC, MRSA (methicillin resistant)",[3]; [10],1.5 to 3 µg/mL
same,bactericidal activity against Staphylococcus aureus (MRSA),"[3]; in words, Example 1",bactericidal activity
same,MIC,"[3]; plate A1, MRSA patient isolate",3/3 ug/ml
same,MBC,"[3]; plate A1, MRSA",3/3 ug/ml
same,MIC,"[3]; plate B2, MRSA patient isolate",1.5 µg/mL
same,MIC,"[3]; plate E5, MRSA patient isolate",1.5 µg/mL
same,MIC,"[3]; plate F6, MRSA patient isolate",1.5/1.5 ug/ml
same,MBC,"[3]; plate F6, MRSA",1.5/1.5 ug/ml
same,MIC,"[3]; plate G7, MRSA patient isolate",1.5 µg/mL
same,MIC,"[3]; plate H9, MRSA patient isolate",3/3 ug/ml
same,MBC,"[3]; plate H9, MRSA",3/3 ug/ml
same,MIC,"[3]; plate K12, MRSA patient isolate",3 µg/mL
same,"MIC, Stenotrophomonas maltophilia",[4]; [10],24 to 48 µg/mL
same,bactericidal activity against Stenotrophomonas maltophilia,"[4]; in words, Example 1",some bactericidal activity
same,MIC,"[4]; plate C3, S. maltophilia patient isolate",48/48 ug/ml
same,MBC,"[4]; plate C3, S. maltophilia",48/48 ug/ml
same,MIC,"[4]; plate I10, S. maltophilia patient isolate",24/24 ug/ml
same,MBC,"[4]; plate I10, S. maltophilia",24/24 ug/ml
same,MIC,"[4]; plate J11, S. maltophilia patient isolate",48/48 ug/ml
same,MBC,"[4]; plate J11, S. maltophilia",48/48 ug/ml
same,inhib. of Candida albicans,Candida albicans; @ 15 ug/ml,(90% inhib. @ 15 ug/ml)
same,"MIC, Candida albicans",Candida albicans; Table 3,30 µg/mL
same,"MIC, Mycobacterium chelonae",Mycobacterium chelonae,5 to 24 µg/mL
same,"MIC, VRE enterococcus (E. faecalis)",[1],3 µg/mL
same,MIC,"[1]; plate D4, VRE patient isolate",3 µg/mL
same,"MIC, P. aeruginosa",P. aeruginosa,No activity
same,MIC,"P. aeruginosa; plate 37, P. aeruginosa sensitive isolate",+++
same,MIC,"P. aeruginosa; plate ATCC, P. aeruginosa ATCC 27853",+++
same,MIC,"P. aeruginosa; plate L13, P. aeruginosaR (multi-resistant)",+++
same,"MIC, VRSA (ATCC 700699)",[2],1.5 µg/mL
same,"MIC, VRSA (ATCC 700788)",[2],3.0 µg/mL
same,MIC,[2]; [11],1.5 µg/mL
same,MBC,[2]; [11],12 µg/mL
same,MIC,[2]; [12],3 µg/mL
same,MBC,[2]; [12],12 µg/mL
same,MIC,E. coli ATCC 25922,48/48 ug/ml
same,MBC,"E. coli ATCC 25922; read at 48 hr, 10^−3 kill",48/48 ug/ml
same,Toxicity/human fibroblasts (IC50),human fibroblasts,6 µg/mL
same,MIC,S. aureus; [13],0.4 µg/mL
same,MBC,S. aureus; [13],0.7 µg/mL
same,MIC,"S. aureus; plate S520, S aureus patient isolate penicillin resistant",1.5/1.5 ug/ml
same,MBC,"S. aureus; plate S520, S aureus patient isolate",1.5/1.5 ug/ml
same,"MIC, Mycobacterium tuberculosis",[5],7 µg/mL
same,IC50,"[6]; CQ resistant P. falciparum, in vitro, triplicate",154 µM
same,inhibitory effect against Pf,[6]; in words,weak effect
